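Briefly, cells in 96-well plates were exposed to five compound concentrations for 48 h, and endpoints were estimated by linear interpolation. GI50 is the concentration that inhibits growth by half.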 The source made the active and inactive calls. No stated cut-off is given here; in the data, active = GI50 up to about 1.1 µM and inactive = higher.

What all share (experiment): growth of human tumour cells (NCI), 48 h
Assay [1] has as its system SK-MEL-5.
Assay [2] deals with SW-620.
The test system of assay [3] is SN12C.
Assay [4] relates to SK-OV-3.
For assay [5], the system named is UACC-62.
For assay [6], the system named is 786-0.
Assay [7] has as its system NCI-H522.
Assay [8] has as its system PC-3.
For assay [9], the system named is OVCAR-5.
Assay [10] has as its system NCI-H226.
The test system of assay [11] is MOLT-4.
Assay [12] relates to DU-145.
Assay [13] has as its system SF-268.
The test system of assay [14] is HCC 2998.
Assay [15] deals with SR.
Assay [16] concerns EKVX.
Assay [17] deals with UACC-257.
Assay [18] deals with SNB-75.
The subject of assay [19] is RPMI-8226.
Assay [20] concerns HCT-15.

As for `NCCCN(CCCCN(CCCN)CCCc1ccccc1)CCCc1ccccc1`, the GI50 was 1.83 µM (inactive) in assay [1]; 2.86 µM (inactive) in assay [2]; 3.9 µM (inactive) in assay [3]; 4.16 µM (inactive) in assay [4]; 1.74 µM (inactive) in assay [5]; 1.7 µM (inactive) in [6]. The GI50 was 2.09 µM (inactive) in [7]; 3.22 µM (inactive) in assay [8]; 11 µM (inactive) in assay [9]; 17.6 µM (inactive) in [10]; 2 µM (inactive) in assay [11]; 8.11 µM (inactive) in assay [12]. The GI50 was 3.07 µM (inactive) in assay [13]; 1.62 µM (inactive) in assay [14]; 2.31 µM (inactive) in [15]; 2.99 µM (inactive) in assay [16]; 1.79 µM (inactive) in [17]; 1.93 µM (inactive) in [18]. Moreover, the GI50 was 2.43 µM (inactive) in assay [19] and 1.96 µM in assay [20].
Turning to `OC(C/C(=N\N=C(/CC(O)(C(F)(F)F)C(F)(F)F)c1ccccc1)c1ccccc1)(C(F)(F)F)C(F)(F)F`, the GI50 in [1], in [2], in assay [3], in assay [4], in assay [5] and in assay [6] was > 10 µM (inactive) throughout. The GI50 in assay [7], in assay [8], in assay [9], in [10], in assay [11] and in assay [12] was > 10 µM (inactive) throughout. The GI50 in assay [13], in assay [14], in [15], in [16], in assay [17] and in assay [18] was > 10 µM (inactive) in each case. The values for the GI50 in assay [19] and in [20] were > 10 µM (inactive) and over 10 µM, respectively.
Turning to `COC(=O)c1cc(C#N)[nH]c1-c1ccsc1`, the GI50 in assay [1], in assay [2], in assay [3], in assay [4], in [5] and in assay [6] was > 100 µM (inactive) throughout. Also, the GI50 is 87.7 µM (inactive) in assay [7]; > 100 µM (inactive) in assay [8]; > 100 µM (inactive) in assay [9]; > 100 µM (inactive) in assay [10]; 8.63 µM (inactive) in [11]; > 100 µM (inactive) in [12]. Further, the GI50 is > 100 µM (inactive) in [13]; > 100 µM (inactive) in [14]; 29.9 µM (inactive) in [15]; 74.8 µM (inactive) in assay [16]; 54.3 µM (inactive) in [17]; > 100 µM (inactive) in assay [18]. Further, the GI50 is 22.5 µM (inactive) in assay [19] and 70.1 µM in [20].
On to `Cc1ccc(S(=O)(=O)N2CCN(S(=O)(=O)c3ccc(C)cc3)CCN(S(=O)(=O)c3ccc(C)cc3)Cc3cc(Br)c(Br)cc3CN(S(=O)(=O)c3ccc(C)cc3)CC2)cc1`, for which the GI50 is > 100 µM (inactive) in assay [1]; 97.7 µM (inactive) in assay [2]; > 100 µM (inactive) in assay [3]; > 100 µM (inactive) in assay [4]; > 100 µM (inactive) in assay [5]; > 100 µM (inactive) in assay [6]. Besides, the GI50 is 52 µM (inactive) in [7]; 46.9 µM (inactive) in assay [8]; 92.3 µM (inactive) in assay [9]; 46.6 µM (inactive) in assay [10]; > 100 µM (inactive) in [11]; > 100 µM (inactive) in assay [12]. Further, the GI50 was > 100 µM (inactive) in assay [13]; > 100 µM (inactive) in assay [14]; > 100 µM (inactive) in [15]; 68.2 µM (inactive) in assay [16]; 37.2 µM (inactive) in assay [17]; 55.6 µM (inactive) in assay [18]. The GI50 is > 100 µM (inactive) in assay [19] and over 100 µM in assay [20].

The record behind these values is ChEMBL document CHEMBL1201862, “PubChem BioAssay data set” (2004).
